# In paper PMC4184574, “Enantioselectivity in the cytochrome P450-dependent conversion of tegafur to 5-fluorouracil in human liver microsomes” (Pharmacology Research & Perspectives, 2013):
# Where “and” joins values, the source holds several entries; their conditions need not be identical. Identical values can stand only once.
# Columns and labels:
# [1] = 5-FU formation from FT enantiomers in human hepatic microsomes (kinetic analysis, formation rate); type: in vitro ADME; settings: for Km / Vmax: monophasic kinetics; for Km1 / Vmax1 / CLint1: high-affinity component; for CLint1: Vmax/Km; for Km2 / Vmax2: low-affinity component
# Procedure: (§1) (pooled preparations from 20 donors; Kansas City, KS). […] Insect microsomes expressing only NADPH-P450 oxidoreductase and cytochrome b5 were also used as control. These enzymes were stored at −80°C until use.
# (§2) 5-FU formed from FT was subjected to extensive metabolism by dihydropyrimidine dehydrogenase (DPD) contaminating human hepatic preparations. Therefore, a potent DPD inhibitor, CDHP, was always added to avoid the unexpected loss of 5-FU (Ikeda et al. [2000]; Yamamiya et al. [2010]). Incubation mixture for hepatic microsomal metabolism contained FT, microsomes (1 mg protein/mL), 0.1 mmol/L CDHP, and an NADPH-generating system consisting of 1.3 mmol/L β-NADP^+, 3.3 mmol/L glucose-6-phosphate, 3.3 mmol/L magnesium chloride, and 0.4 units glucose-6-phosphate dehydrogenase in 100 mmol/L Tris (pH 7.4). Metabolic reaction by S9 and cytosol (each 2 mg protein/mL) was carried out in 100 mmol/L phosphate (pH 7.4) because TPase requires phosphate ions for catalyzing the reaction. In some cases, insect microsomes expressing recombinant CYP isoforms (20 pmol/mL) were added to the incubation mixtures in either 50, 100 mmol/L phosphate (pH 7.4) or 100 mmol/L Tris (pH 7.4), depending on supplier's recommendation. […] The reaction for the assay of FT metabolism was initiated by adding the substrate, following preincubation for 5 min at 37°C. […] The incubation times of microsomes, cytosol, and S9 were 15, 15, and 30 min, respectively. After centrifugation, the supernatant was collected and stored at −80°C until the determination of 5-FU. Because a small portion of FT is nonenzymatically converted to 5-FU, the content of 5-FU spontaneously formed was subtracted from total yield obtained after incubation to correct the activity. The spontaneous degradation of FT to 5-FU was evaluated using enzymes inactivated by heating them at 100°C for 5 min.
# (§3) Concentration of 5-FU was determined using a LC/MS/MS system. […] The mobile phase consisted of 10 mmol/L ammonium acetate/acetonitrile 10:90 (v/v). The MS/MS analysis was performed in negative ionization mode under multiple reaction monitoring (MRM) mode, using mass transitions, m/z 128.6/41.8 for 5-FU and m/z 130.6/42.8 for ^15N2-5-FU, an internal standard (IS). […] For quantification of 5-FU, the calibration curves were linear over the range 2–1000 ng/mL.
# (§4) In determining kinetic parameters, FT concentration ranged from 0.03 to 10 mmol/L. All reactions were performed in a linear range of 5-FU formation with respect to protein or CYP concentrations and incubation time. Eadie–Hofstee plot analysis was used to characterize enzyme kinetics in which kinetic parameters were estimated by fitting the data to the following equations (1) or (2): [drawing 1] (1) [drawing 2] (2) where V is 5-FU formation rate, S is FT concentration in the incubation mixture, Km1 and Km2 are affinity constants for high- and low-affinity components, respectively, and Vmax1 and Vmax2 are maximum velocities for high- and low-affinity components, respectively.
# [2] = parameters: method as in Damle et al. [2001]; settings: ref Damle et al. [2001], cited from earlier work; for maximum concentration (Cmax) / Cmax: cancer patients after oral administration of UFT; for Cmax: read-out: maximum concentration (Cmax); for area under the plasma concentration–time curve / plasma elimination half-life: cancer patients orally given FT
# CYP1A2 = target: T1, CYP1A2 (Homo sapiens, UniProt P05177); assay: 5-FU formation from FT enantiomers by cDNA-expressed CYP1A2 (kinetics, velocity, RAF contribution); type: in vitro ADME; settings: for CYP contribution: CYP1A2, RAF method, 30 μmol/L
# T1 construct: purchased BD Gentest; host or cells: insect cells (baculovirus)
# T1 sequence (P05177 2-516 limits assumed): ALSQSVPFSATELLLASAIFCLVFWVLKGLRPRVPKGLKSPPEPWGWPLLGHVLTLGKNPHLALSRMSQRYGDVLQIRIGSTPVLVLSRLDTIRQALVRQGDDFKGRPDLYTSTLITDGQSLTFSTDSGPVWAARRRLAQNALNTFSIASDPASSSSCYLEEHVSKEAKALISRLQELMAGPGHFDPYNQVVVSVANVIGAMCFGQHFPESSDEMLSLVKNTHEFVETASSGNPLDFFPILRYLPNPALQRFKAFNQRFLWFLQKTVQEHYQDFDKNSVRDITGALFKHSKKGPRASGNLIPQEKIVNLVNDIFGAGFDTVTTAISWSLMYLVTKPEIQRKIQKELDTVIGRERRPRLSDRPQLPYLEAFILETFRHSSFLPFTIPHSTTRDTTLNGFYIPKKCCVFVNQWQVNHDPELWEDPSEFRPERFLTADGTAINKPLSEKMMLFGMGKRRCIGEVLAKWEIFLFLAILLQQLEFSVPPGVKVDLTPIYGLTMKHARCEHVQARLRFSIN
# Procedure: as §1, §2, §3, §4
# The contribution of CYPn to the metabolism of R- and S-FT at their concentration of 30 μmol/L was subsequently calculated using equation (4). [drawing 4] (4) VCYPn = 5-FU formation rate in cDNA-expressed CYPn.
# [3] = 5-FU formation from FT enantiomers in pooled human hepatic cytosol; type: in vitro ADME
# Procedure: as §1
# 5-FU formed from FT was subjected to extensive metabolism by dihydropyrimidine dehydrogenase (DPD) contaminating human hepatic preparations. Therefore, a potent DPD inhibitor, CDHP, was always added to avoid the unexpected loss of 5-FU (Ikeda et al. [2000]; Yamamiya et al. [2010]). Incubation mixture for hepatic microsomal metabolism contained FT, microsomes (1 mg protein/mL), 0.1 mmol/L CDHP, and an NADPH-generating system consisting of 1.3 mmol/L β-NADP^+, 3.3 mmol/L glucose-6-phosphate, 3.3 mmol/L magnesium chloride, and 0.4 units glucose-6-phosphate dehydrogenase in 100 mmol/L Tris (pH 7.4). Metabolic reaction by S9 and cytosol (each 2 mg protein/mL) was carried out in 100 mmol/L phosphate (pH 7.4) because TPase requires phosphate ions for catalyzing the reaction. […] The spontaneous degradation of FT to 5-FU was evaluated using enzymes inactivated by heating them at 100°C for 5 min.
# Concentration of 5-FU was determined using a LC/MS/MS system. […] For quantification of 5-FU, the calibration curves were linear over the range 2–1000 ng/mL. […]
# [4] = Mean ± SD of five human livers, total (for R-FT sum of high- and low-affinity components)
# [5] = microsomes HG32, total (for R-FT sum of high- and low-affinity components)
# [6] = microsomes HH31, total (for R-FT sum of high- and low-affinity components)
# [7] = microsomes HH74, total (for R-FT sum of high- and low-affinity components)
# [8] = microsomes HH94, total (for R-FT sum of high- and low-affinity components)
# [9] = human hepatic microsomes, higher
compound,measurement,setting,value
O=c1[nH]c(=O)n([C@@H]2CCCO2)cc1F [S-FT],Km,[1]; Mean ± SD of five human livers,1600 ± 600 µM
same,Vmax,[1]; Mean ± SD of five human livers,1021 ± 692 pmol/min/mg
same,CLint,[1]; [4],0.73 ± 0.53 µL/min/mg
same,Km,[1]; microsomes HG32,1400 µM
same,Vmax,[1]; microsomes HG32,468 pmol/min/mg
same,CLint,[1]; [5],0.34 µL/min/mg
same,Km,[1]; microsomes HH31,1400 µM
same,Vmax,[1]; microsomes HH31,2205 pmol/min/mg
same,CLint,[1]; [6],1.6 µL/min/mg
same,Km,[1]; microsomes HH74,2600 µM
same,Vmax,[1]; microsomes HH74,583 pmol/min/mg
same,CLint,[1]; [7],0.23 µL/min/mg
same,Km,[1]; microsomes HH81,1100 µM
same,Vmax,[1]; microsomes HH81,915 pmol/min/mg
same,CLint,"[1]; microsomes HH81, total",0.81 µL/min/mg
same,Km,[1]; microsomes HH94,1300 µM
same,Vmax,[1]; microsomes HH94,936 pmol/min/mg
same,CLint,[1]; [8],0.71 µL/min/mg
same,maximum concentration (Cmax),[2],3.788 µg/mL
same,Cmax,[2],18.9 µM
same,area under the plasma concentration–time curve,[2],"49,300 ng h/mL"
same,plasma elimination half-life,[2],10.3 h
same,CYP contribution,CYP1A2,4.4%
same,Km,CYP1A2; cDNA-expressed CYP1A2,> 10000 µM
O=c1[nH]c(=O)n([C@H]2CCCO2)cc1F [R-FT],Km1,[1]; Mean ± SD of five human livers,0.12 mmol/L and 0.12 ± 0.03 mmol/L
same,Vmax1,[1]; Mean ± SD of five human livers,838 ± 669 pmol/min/mg
same,CLint1,[1]; Mean ± SD of five human livers,6.2 ± 4.4 µL/min/mg
same,CLint,[1]; [4],6.4 ± 4.4 µL/min/mg
same,Km2,[1]; Mean ± SD of human livers,2.7 mmol/L and 2.7 ± 0.3 mmol/L
same,Vmax2,[1]; Mean ± SD of human livers,613 ± 236 pmol/min/mg
same,CLint (Vmax/Km) of high-affinity component compared with the low-affinity one,[1]; [9],approximately 27 fold
same,CLint value of R-FT relative to that of S-FT,[1]; [9],8.8 fold
same,Km1,[1]; microsomes HG32,0.11 mmol/L
same,Vmax1,[1]; microsomes HG32,355 pmol/min/mg
same,CLint1,[1]; microsomes HG32,3.2 µL/min/mg
same,Km2,[1]; microsomes HG32,3.0 mmol/L
same,Vmax2,[1]; microsomes HG32,302 pmol/min/mg
same,CLint,[1]; [5],3.3 µL/min/mg
same,Km1,[1]; microsomes HH31,0.14 mmol/L
same,Vmax1,[1]; microsomes HH31,1816 pmol/min/mg
same,CLint1,[1]; microsomes HH31,13 µL/min/mg
same,Km2,[1]; microsomes HH31,2.9 mmol/L
same,Vmax2,[1]; microsomes HH31,859 pmol/min/mg
same,CLint,[1]; [6],13 µL/min/mg
same,Km1,[1]; microsomes HH74,0.093 mmol/L
same,Vmax1,[1]; microsomes HH74,146 pmol/min/mg
same,CLint1,[1]; microsomes HH74,1.6 µL/min/mg
same,Km2,[1]; microsomes HH74,2.7 mmol/L
same,Vmax2,[1]; microsomes HH74,709 pmol/min/mg
same,CLint,[1]; [7],1.8 µL/min/mg
same,Km1,[1]; microsomes HH81,0.16 mmol/L
same,Vmax1,[1]; microsomes HH81,1162 pmol/min/mg
same,CLint1,[1]; microsomes HH81,7.1 µL/min/mg
same,CLint,"[1]; microsomes HH81, total",7.1 µL/min/mg
same,Km1,[1]; microsomes HH94,0.12 mmol/L
same,Vmax1,[1]; microsomes HH94,712 pmol/min/mg
same,CLint1,[1]; microsomes HH94,6.1 µL/min/mg
same,Km2,[1]; microsomes HH94,2.3 mmol/L
same,Vmax2,[1]; microsomes HH94,583 pmol/min/mg
same,CLint,[1]; [8],6.4 µL/min/mg
same,contribution of the high-affinity component to the conversion to 5-FU,[1]; substrate concentration well below the Km value,over 90%
same,Vmax,[3],761 pmol/min/mg
same,Km,[3]; read-out: apparent Km,26000 µM
same,maximum concentration (Cmax),[2],2.957 µg/mL
same,Cmax,[2],14.8 µM
same,area under the plasma concentration–time curve,[2],"10,800 ng h/mL"
same,plasma elimination half-life,[2],2.4 h
same,CYP contribution,CYP1A2,7.5%
same,CLint,CYP1A2; cDNA-expressed CYP1A2,4.9 nL min^−1 pmol^−1 CYP
same,Km,CYP1A2; cDNA-expressed CYP1A2,1100 ± 100 µM
same,Vmax,CYP1A2; cDNA-expressed CYP1A2,5.6 ± 0.3 pmol min^−1 pmol^−1 CYP
